Results taken from ChEMBL document CHEMBL1201862, “PubChem BioAssay data set” (2004).
Calls of active or inactive are those of the source.

Tests used:
Cytochrome P450 3A4 = Cytochrome P450 3A4 (Homo sapiens, UniProt P08684); settings: Potency;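 also: confirmatory qHTS run detecting inhibitors and substrates of CYP3A4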
[1] = biological target: Glyceraldehyde-3-phosphate dehydrogenase (Homo sapiens, UniProt P04406)
[2] = biological target: DNA dC->dU-editing enzyme APOBEC-3A (Homo sapiens, UniProt P31941); assay: Dose Response confirmation of small molecule APOBEC3A DNA Deaminase Inhibitors via a fluorescence-based single-stranded DNA deaminase assay. [Related pubchem assays (depositor defined):AID493011, AID493024]; assay type: functional
[3] = biological target: DNA dC->dU-editing enzyme APOBEC-3G (Homo sapiens, UniProt Q9HC16); assay type: functional;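 also: Dose-response counterscreen measuring inhibition of APOBEC3G DNA deaminase activity, run while confirming APOBEC3A inhibitors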
[4] = inhibitors of HIV Env-driven cell fusion, dose response, cherry-pick (AID 652057); assay type: functional, cell-based
[5] = ZM109 Env clade C HIV-1 fusion inhibitors, dose response, HeLa effector, CEM target cells, luciferase, cherry-pick (AID 652058); assay type: functional, cell-based
[6] = off-target signal loss in HeLa-CEM21 co-culture – HeLa F-luc CTL cells, cherry-picked, counter-screen for HIV-1 Env fusion inhibitor project, dose response (AID 652040); assay type: functional, cell-based;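 also: potency for signal decrease marking cytotoxic or nonspecific inhibition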
[7] = inhibitors of clade B AD8 Env fusion, dose response, cell-based, cherry-pick (AID 652062); assay type: functional;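 also: luciferase signal from cell-cell fusion driven by HIV-1 clade B AD8 Env; potency is for inhibitors of fusion seen as a drop in luminescence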
[8] = biological target: Eukaryotic translation initiation factor 4E (Mus musculus, UniProt P63073); assay: eIF4E–eIF4G protein interaction inhibitors, dose response, biochemical, TR-FRET (AID 855); assay type: functional;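 also: potency for disrupting eIF4E binding to eIF4GI seen as loss of FRET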
HEK293 [9] = assay: NOD1 signaling inhibitors, primary screen, cell-based, luminescence, uHTS (AID 1578); assay type: functional; settings: Homo sapiens
HEK293 [10] = assay: cells; assay type: functional, cell-based; settings: Homo sapiens
HEK293 [11] = assay: cells; assay type: functional, cell-based; settings: Homo sapiens; remark: listed apart in the source
HEK293 [12] = assay: NOD2 signaling inhibitors in MDP-stimulated cells, cell-based, uHTS, luminescence (AID 2001); assay type: functional; settings: Homo sapiens
[13] = Shn3 3'UTR reporter inhibitors, dose response, cell-based, Clone20 osteoblasts, firefly luciferase, cherry-picked (AID 624132); assay type: functional;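 also: firefly luciferase luminescence from reporter carrying the Shn3 3'UTR in osteoblasts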
[14] = HepG2 cell cytotoxicity, dose response, cytotoxicity control for Shn3 inhibitor project, CellTiter-Glo, cherry-picked (AID 624134); assay type: functional, cell-based
[15] = control 3'UTR Renilla luciferase suppression, dose response, counter-screen for Shn3 inhibitor project, cell-based, Clone20-Shn3RL, cherry-picked (AID 624133); assay type: functional
Leucine aminopeptidase = biological target: T1, Leucine aminopeptidase (Plasmodium falciparum 3D7, UniProt Q8IL11); assay: P. falciparum M17LAP inhibitors, primary screen, biochemical, fluorogenic H-Leu-NHMec substrate, 1536-well (AID 1619); assay type: functional
T1 sequence (Q8IL11 whole entry): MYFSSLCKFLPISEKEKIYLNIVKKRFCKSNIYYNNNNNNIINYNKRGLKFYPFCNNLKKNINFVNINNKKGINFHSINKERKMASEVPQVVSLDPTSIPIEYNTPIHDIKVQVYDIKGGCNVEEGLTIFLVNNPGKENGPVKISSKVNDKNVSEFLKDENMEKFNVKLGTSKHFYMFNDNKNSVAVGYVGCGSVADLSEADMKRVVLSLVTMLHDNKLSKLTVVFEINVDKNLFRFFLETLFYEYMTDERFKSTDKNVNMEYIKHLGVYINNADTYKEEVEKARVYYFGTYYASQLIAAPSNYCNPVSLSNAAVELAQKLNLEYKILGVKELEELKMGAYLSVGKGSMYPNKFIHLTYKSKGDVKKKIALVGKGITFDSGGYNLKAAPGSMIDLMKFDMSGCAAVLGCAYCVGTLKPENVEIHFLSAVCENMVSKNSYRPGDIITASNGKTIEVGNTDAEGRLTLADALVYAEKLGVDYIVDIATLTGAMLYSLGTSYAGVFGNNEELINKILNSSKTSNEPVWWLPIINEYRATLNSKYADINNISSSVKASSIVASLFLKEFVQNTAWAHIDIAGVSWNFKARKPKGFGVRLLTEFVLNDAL

[16] = A549 cell cytotoxicity, dose response, cytotoxicity control, plate reader, cherry-pick, antagonist series (AID 743412); assay type: functional, cell-based
[17] = LGR2 antagonists, dose response, cell-based, HEK293, CRE-luciferase reporter, cherry pick, set 2 (AID 743343); assay type: functional;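 also: transfected cells were stimulated with diluted bursicon conditioned medium after compound addition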
[18] = MC4R antagonists, dose response, counter-screen for LGR2 antagonist project, cell-based, plate reader, cherry pick (AID 743444); assay type: functional;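 also: transfected HEK 293 cells stimulated with alpha-MSH peptide; potency of inhibitors of the alpha-MSH evoked signal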
[19] = HEK293 cell cytotoxicity, dose response, cytotoxicity control, plate reader, cherry-picked samples (AID 743446); assay type: functional, cell-based
[20] = biological target: T2, Carboxy-terminal domain RNA polymerase II polypeptide A small phosphatase 1 (Homo sapiens, UniProt Q9GZU7); assay: inhibitors of CTDSP1, concentration-response testing, biochemical assay, absorbance-based, actives from ultra-high-throughput screening (AID 540297); assay type: functional
T2 sequence (Q9GZU7 whole entry): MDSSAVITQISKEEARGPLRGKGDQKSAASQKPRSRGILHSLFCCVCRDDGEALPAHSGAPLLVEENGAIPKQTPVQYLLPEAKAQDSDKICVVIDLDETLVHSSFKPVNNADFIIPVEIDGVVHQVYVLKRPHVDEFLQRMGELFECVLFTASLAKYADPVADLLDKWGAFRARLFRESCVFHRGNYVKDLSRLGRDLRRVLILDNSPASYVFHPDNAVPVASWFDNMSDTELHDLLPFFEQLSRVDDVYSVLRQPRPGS

[21] = test system: Streptococcus sp. 'group A'; assay: growth inhibition of control SK(-) GAS strain, dose response, counter-screen for streptokinase expression inhibitor project, luminescence, kanamycin, BacTiterGlo, confirmation (AID 1900); assay type: functional, organism-based
Streptokinase A = biological target: T3, Streptokinase A (Streptococcus pyogenes serotype M1, UniProt P10520); assay: S. pyogenes streptokinase expression inhibitors, potency, dose response, plasminogen activation absorbance, OD405 (AID 1914); assay type: functional, Streptococcus pyogenes M1 GAS;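 also: secreted streptokinase activity via plasminogen activation per viability signal from cell pellet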
T3 sequence (P10520 whole entry): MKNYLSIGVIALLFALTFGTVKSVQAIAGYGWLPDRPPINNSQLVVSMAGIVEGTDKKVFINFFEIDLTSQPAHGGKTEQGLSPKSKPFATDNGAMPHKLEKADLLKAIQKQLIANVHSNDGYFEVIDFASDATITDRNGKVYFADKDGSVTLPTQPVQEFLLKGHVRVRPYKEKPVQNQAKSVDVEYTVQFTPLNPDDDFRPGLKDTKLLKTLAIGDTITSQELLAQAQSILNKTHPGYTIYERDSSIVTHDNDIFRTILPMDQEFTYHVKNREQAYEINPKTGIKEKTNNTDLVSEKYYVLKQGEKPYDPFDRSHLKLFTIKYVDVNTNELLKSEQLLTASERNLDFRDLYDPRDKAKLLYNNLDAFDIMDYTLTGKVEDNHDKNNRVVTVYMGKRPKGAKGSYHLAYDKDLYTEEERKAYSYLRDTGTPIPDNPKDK

[22] = microbe, parasite or virus in culture; assay type: functional; settings: Mycobacterium tuberculosis
[23] = biological target: T4, Calpain-2 catalytic subunit (Sus scrofa, UniProt P43367); assay: pig calpain II inhibitor potency, dose response, biochemical, fluorogenic peptide substrate (AID 1420); assay type: functional
T4 sequence (P43367 whole entry): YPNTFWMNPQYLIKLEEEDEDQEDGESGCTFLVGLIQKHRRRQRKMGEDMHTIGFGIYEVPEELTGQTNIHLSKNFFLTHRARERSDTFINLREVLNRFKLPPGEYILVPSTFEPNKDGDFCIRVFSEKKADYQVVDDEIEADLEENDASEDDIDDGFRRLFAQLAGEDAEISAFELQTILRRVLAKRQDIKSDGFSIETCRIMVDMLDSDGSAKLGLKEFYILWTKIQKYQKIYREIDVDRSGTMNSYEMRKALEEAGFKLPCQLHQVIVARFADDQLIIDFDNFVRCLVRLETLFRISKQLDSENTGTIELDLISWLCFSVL

Streptococcus = assay: Group A Streptococcus viability loss, dose response, counter-screen for streptokinase expression inhibitor project, luminescence, BacTiterGlo (AID 1915); assay type: functional, organism-based;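 also: potency for reduction of bacterial viability or growth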
Fatty acid synthase [24] = biological target: T5, Fatty acid synthase (Homo sapiens, UniProt P49327); assay: FAS thioesterase domain inhibitors, dose response, biochemical, endpoint fluorescence intensity, uHTS hits (AID 624327); assay type: functional;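 also: fluorescence from hydrolysis of an O-methyl fluorescein acyl ester substrate by the enzyme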
Fatty acid synthase [25] = biological target: T5, Fatty acid synthase; assay: FAS thioesterase domain inhibitors, dose response, biochemical, kinetic fluorescence intensity (AID 624326); assay type: functional;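 also: rate of fluorescence rise from hydrolysis of a fluorogenic O-methyl fluorescein ester substrate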

Glyceraldehyde-3-phosphate dehydrogenase, sequence (P04406 whole entry): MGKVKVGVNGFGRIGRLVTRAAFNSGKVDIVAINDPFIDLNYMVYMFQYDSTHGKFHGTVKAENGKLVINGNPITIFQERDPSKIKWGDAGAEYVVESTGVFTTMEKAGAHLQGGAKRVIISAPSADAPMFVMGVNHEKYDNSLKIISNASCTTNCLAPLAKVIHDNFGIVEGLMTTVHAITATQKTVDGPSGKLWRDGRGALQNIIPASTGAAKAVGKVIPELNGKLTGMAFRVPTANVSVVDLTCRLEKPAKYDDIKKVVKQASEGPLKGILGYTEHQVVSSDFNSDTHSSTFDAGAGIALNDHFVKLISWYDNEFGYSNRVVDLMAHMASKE
DNA dC->dU-editing enzyme APOBEC-3A, sequence (P31941 whole entry): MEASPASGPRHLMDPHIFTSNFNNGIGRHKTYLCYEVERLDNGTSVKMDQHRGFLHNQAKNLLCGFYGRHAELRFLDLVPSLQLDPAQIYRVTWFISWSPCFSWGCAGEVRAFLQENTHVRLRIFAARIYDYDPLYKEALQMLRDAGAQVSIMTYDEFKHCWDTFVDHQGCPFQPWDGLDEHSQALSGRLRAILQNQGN
DNA dC->dU-editing enzyme APOBEC-3G, sequence (Q9HC16 whole entry, the tested form may be a part): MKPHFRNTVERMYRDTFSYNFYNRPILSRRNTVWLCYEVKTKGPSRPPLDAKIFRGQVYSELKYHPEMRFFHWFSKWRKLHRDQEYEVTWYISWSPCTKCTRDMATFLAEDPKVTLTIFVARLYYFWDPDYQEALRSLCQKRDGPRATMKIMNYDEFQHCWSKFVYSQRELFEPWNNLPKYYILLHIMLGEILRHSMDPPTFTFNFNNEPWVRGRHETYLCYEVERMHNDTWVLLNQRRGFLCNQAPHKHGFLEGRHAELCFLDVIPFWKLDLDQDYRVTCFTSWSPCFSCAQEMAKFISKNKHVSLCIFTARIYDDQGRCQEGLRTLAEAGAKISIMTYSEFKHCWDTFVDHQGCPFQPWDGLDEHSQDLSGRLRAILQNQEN
Eukaryotic translation initiation factor 4E, sequence (P63073 whole entry): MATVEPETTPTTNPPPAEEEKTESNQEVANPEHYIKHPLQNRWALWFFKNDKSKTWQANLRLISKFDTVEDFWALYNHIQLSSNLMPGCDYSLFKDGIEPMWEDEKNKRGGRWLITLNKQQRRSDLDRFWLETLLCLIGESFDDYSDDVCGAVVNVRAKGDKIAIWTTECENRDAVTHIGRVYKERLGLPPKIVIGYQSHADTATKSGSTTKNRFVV
Cytochrome P450 3A4, sequence (P08684 whole entry): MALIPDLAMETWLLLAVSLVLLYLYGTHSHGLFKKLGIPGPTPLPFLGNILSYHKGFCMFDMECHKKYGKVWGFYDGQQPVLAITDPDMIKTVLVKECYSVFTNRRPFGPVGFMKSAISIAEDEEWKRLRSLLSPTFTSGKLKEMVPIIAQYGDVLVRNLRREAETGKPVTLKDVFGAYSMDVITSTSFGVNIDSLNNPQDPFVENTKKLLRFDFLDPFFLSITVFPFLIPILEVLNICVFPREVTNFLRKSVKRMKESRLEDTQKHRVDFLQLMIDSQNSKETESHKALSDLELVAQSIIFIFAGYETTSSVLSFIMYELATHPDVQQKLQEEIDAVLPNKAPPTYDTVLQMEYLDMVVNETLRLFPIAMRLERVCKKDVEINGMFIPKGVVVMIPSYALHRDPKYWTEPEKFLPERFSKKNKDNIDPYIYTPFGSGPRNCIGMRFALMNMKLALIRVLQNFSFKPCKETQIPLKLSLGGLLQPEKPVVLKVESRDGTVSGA
T5 sequence (P49327 whole entry, the tested form may be a part): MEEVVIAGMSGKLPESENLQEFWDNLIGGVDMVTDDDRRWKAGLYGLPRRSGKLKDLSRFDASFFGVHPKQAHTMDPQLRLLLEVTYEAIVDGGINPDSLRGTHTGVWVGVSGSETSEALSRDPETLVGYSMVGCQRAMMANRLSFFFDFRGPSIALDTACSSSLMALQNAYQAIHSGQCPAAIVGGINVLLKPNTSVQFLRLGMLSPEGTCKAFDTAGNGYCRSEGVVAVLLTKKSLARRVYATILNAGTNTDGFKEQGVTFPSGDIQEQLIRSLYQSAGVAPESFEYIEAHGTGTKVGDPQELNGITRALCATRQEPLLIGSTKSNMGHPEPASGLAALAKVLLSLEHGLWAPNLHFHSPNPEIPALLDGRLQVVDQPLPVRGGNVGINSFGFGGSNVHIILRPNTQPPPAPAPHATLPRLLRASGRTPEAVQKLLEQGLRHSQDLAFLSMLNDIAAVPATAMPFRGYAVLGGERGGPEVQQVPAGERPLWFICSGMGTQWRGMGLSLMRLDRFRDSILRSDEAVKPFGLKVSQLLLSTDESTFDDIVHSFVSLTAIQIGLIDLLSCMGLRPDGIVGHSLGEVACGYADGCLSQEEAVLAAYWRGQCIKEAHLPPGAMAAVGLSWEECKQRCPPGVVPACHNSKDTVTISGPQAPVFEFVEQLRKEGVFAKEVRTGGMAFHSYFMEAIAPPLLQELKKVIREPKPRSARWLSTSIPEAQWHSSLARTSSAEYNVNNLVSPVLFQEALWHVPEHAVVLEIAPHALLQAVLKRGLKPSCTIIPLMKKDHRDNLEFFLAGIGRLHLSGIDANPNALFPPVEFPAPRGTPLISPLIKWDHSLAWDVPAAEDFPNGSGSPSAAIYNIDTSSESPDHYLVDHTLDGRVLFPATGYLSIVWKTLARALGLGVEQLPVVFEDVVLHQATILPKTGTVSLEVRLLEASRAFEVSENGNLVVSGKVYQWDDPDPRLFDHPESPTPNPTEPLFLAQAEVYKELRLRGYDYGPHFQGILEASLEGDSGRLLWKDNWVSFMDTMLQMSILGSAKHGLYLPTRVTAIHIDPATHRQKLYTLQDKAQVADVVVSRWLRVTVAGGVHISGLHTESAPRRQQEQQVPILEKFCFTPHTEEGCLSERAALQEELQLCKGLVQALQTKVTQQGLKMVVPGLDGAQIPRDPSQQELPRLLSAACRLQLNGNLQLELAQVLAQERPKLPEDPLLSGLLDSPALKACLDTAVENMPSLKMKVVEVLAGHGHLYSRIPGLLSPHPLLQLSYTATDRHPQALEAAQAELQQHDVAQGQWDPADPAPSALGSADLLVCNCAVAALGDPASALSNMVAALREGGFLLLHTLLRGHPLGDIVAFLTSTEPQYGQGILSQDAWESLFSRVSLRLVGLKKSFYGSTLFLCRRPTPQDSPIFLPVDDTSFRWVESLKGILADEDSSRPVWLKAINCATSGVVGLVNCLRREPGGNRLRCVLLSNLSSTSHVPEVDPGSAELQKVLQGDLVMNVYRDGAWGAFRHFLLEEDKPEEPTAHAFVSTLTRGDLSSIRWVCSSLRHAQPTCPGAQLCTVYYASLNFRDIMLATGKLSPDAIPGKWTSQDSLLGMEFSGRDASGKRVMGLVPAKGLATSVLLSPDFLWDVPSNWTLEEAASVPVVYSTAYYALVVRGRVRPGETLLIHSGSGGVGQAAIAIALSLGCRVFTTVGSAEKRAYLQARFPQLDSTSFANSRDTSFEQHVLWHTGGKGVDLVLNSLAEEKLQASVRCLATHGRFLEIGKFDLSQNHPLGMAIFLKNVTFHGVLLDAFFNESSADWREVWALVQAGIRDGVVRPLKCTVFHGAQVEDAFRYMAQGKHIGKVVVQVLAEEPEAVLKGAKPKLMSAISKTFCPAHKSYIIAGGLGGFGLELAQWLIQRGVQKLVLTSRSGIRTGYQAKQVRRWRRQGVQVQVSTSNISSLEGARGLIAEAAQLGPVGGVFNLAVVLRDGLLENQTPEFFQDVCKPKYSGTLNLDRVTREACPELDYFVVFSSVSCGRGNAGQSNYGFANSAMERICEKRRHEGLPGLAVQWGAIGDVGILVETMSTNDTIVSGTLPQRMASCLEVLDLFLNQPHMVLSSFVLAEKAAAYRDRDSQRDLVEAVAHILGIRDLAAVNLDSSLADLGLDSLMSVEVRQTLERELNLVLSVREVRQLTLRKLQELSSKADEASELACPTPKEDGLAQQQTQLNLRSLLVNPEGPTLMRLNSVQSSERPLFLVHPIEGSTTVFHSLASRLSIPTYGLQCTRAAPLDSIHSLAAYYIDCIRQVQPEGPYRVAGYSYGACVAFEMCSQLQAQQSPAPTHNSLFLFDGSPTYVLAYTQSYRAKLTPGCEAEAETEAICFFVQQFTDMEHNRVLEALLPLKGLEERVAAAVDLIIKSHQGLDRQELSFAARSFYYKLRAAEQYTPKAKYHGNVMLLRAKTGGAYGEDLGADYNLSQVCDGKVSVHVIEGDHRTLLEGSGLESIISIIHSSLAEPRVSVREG

SMILES: c1ccc2c(Cc3c[nH]c4ccccc34)c[nH]c2c1 [ARUNDINE]
- AC50 (Cytochrome P450 3A4): 39.8 µM (inconclusive)

SMILES: O=C(O)CS(=O)(=O)c1ccc2ccccc2c1
- IC50 [1]: > 100 µM (not active)

SMILES: O=[N+]([O-])c1ccc(C[n+]2cccc3ccccc32)cc1
- IC50 [2]: 3.26 µM (active)
- IC50 [3]: 5.45 µM (active)

SMILES: COc1cc(NC2c3ccccc3C(=O)N2Cc2ccc3c(c2)OCO3)cc(OC)c1OC (stereo not drawn)
- AC50 [4]: 6.77 µM (active)
- AC50 [5]: 5.79 µM (active)
- AC50 [6]: 14.7 µM (active)
- AC50 [7]: 10.1 µM (active)

SMILES: COc1cc(NC2c3ccccc3C(=O)N2Cc2ccccc2)cc(OC)c1OC (stereo not drawn)
- AC50 [4]: 8.41 µM (active)
- AC50 [5]: 13.1 µM (active)
- AC50 [6]: 9.63 µM (active)
- AC50 [7]: 7.97 µM (active)

SMILES: CC(C)(C)NC(=O)C(=O)NN=C1CCCCCCC1
- IC50 [8]: 50 µM (inactive)

SMILES: CCOc1ccc(NC(=O)c2cc3ccccc3cc2O)cc1
- IC50 [2]: 12.9 µM (active)
- IC50 [3]: 47.5 µM (active)

SMILES: CCCc1nc(SCC(=O)Nc2nnc(SCC)s2)c2c(=O)n(C)c(=O)n(C)c2n1
- EC50 (HEK293 [9]): > 20 µM (inactive)
- IC50 (HEK293 [10]): 7.04 µM (active)
- IC50 (HEK293 [11]): > 20 µM (inactive)
- IC50 (HEK293 [12]): 4.78 µM (active)

SMILES: CCCn1c(-c2ccc(F)cc2)nc2c(NCCCCN(C)C)nc(C)nc21
- AC50 (Cytochrome P450 3A4): 25.1 µM (inconclusive)

SMILES: CCCOC(=O)c1[nH]c2c(c1C)C(=O)CC(c1cc(OC)c(OC)c(OC)c1)C2 (stereo not drawn)
- EC50 (HEK293 [9]): 2.78 µM (active)
- IC50 (HEK293 [10]): 6.21 µM (active)
- IC50 (HEK293 [11]): 16.4 µM (active)
- IC50 (HEK293 [12]): 4.9 µM (active)
- AC50 [13]: 1.92 µM (active)
- AC50 [14]: 52.9 µM (active)
- AC50 [15]: 6.82 µM (active)

SMILES: Cc1nnc(SCC(=O)Nc2ccc(O)c(C(=O)O)c2)s1
- IC50 [1]: > 100 µM (not active)

SMILES: CCc1ccc(C(=O)CSc2nnc[nH]2)cc1
- IC50 (Leucine aminopeptidase): 16.7 µM (active)
- IC50 [8]: > 64 µM (inactive)

SMILES: O=C(CCc1ccc(O)cc1)c1c(O)cc(O)cc1O[C@H]1OC(CO)C(O)C(O)C1O (stereo partly drawn)
- AC50 (Cytochrome P450 3A4): 39.8 µM (inconclusive)

SMILES: CCn1cc(C(=O)OCC(=O)c2cc(C)n(-c3ccc(OC(F)F)cc3)c2C)c(=O)c2ccc(C)nc21
- IC50 [8]: > 64 µM (inactive)

SMILES: Cc1ccc(S(=O)(=O)N(CC(=O)O)Cc2ccco2)cc1
- IC50 [2]: 16 µM (active)
- IC50 [3]: 28.4 µM (active)

SMILES: O=C(O)/C=C/C(=O)Nc1ccccc1C(=O)OCC(=O)c1ccc2c(c1)OCCO2
- IC50 (Leucine aminopeptidase): 36.9 µM (active)

SMILES: Cc1ccc(CCCOC(=O)C[N+]2(C)CCCCC2)cc1
- IC50 [2]: 2.57 µM (active)
- IC50 [3]: 2.58 µM (active)

SMILES: Oc1nc2ccccc2n1C1CCN(C(c2ccccc2OC(F)(F)F)c2nnnn2Cc2ccccc2)CC1 (stereo not drawn)
- AC50 [16]: 18.9 µM (active)
- AC50 [17]: 20.5 µM (active)
- AC50 [18]: 22.9 µM (active)
- AC50 [19]: 17.6 µM (active)

SMILES: O=C(O)C1CC=CCC1C(=O)Nc1ccccc1Cl (stereo not drawn)
- IC50 (Leucine aminopeptidase): 12 µM (active)

SMILES: O=C(COC(=O)/C=C/c1ccco1)Nc1ncc(C(F)(F)F)cc1Cl
- IC50 [2]: 16.9 µM (active)
- IC50 [3]: 29.9 µM (active)
- IC50 [20]: 4.77 µM (active)

SMILES: COc1ccc(/C=C(\NC(=O)c2ccccc2)C(=O)OC[C@@H]2CCC[N+]3(C)CCCCC23)cc1OC (stereo partly drawn)
- IC50 [2]: 2.2 µM (active)
- IC50 [3]: 3.58 µM (active)
- IC50 [20]: 6.62 µM (active)

SMILES: COC(=O)CC[C@@H](C)[C@H]1CC[C@H]2[C@@H]3[C@H](O)C[C@@H]4C[C@H](O)CC[C@]4(C)[C@H]3C[C@H](O)[C@]12C [CHOLIC ACID, METHYL ESTER]
- AC50 (Cytochrome P450 3A4): 31.6 µM (inconclusive)

SMILES: CCC1=C2CC[C@H]3C(=O)NC(=O)[C@H]3[C@H]2[C@@]2(C)/C(=N/CC3CC3)OC(=O)N2C1=O
- AC50 (Cytochrome P450 3A4): 25.1 µM (inconclusive)

SMILES: O=C1C2CC=CCC2C(=O)N1c1nc(CCc2ccccc2)n[nH]1 (stereo not drawn)
- IC50 [1]: > 100 µM (not active)

SMILES: CC(C)C[C@H](NC(=O)c1[nH]cnc1C(=O)NC1CCN(C(=O)OC(C)(C)C)CC1)C(=O)OCc1ccccc1
- EC50 [21]: 8.37 µM (active)
- EC50 (Streptokinase A): > 150 µM (not active)
- CC50 [22]: > 40 µM (active)
- IC50 [23]: 4.9 µM (not active)
- EC50 (Streptococcus): 12.3 µM (active)
- IC50 (Fatty acid synthase [24]): 8.64 µM (active)
- IC50 (Fatty acid synthase [25]): 6.28 µM (active)
